Measurements taken from publication PMC8126888 (RSC Medicinal Chemistry, 2020).
pIC50: −log10 of the molar value. Where two headings read alike, the source gives them in different places.

Key:
[1] = tested on: primary peritoneal mouse macrophages (PMM); details: for SI (vs PMM): PMM IC50 / L. infantum IC50; for pIC50: read-out: PMM IC50
in vitro [2] = details: Swiss, mouse
in vitro [3] = details: human, microsomes, pH 7.4, HLM CLint, human liver microsomes
in vitro [4] = details: mouse, microsomes, pH 7.4, MLM CLint, mouse liver microsomes
physchem = details: HPLC, Ascentis Express RP Amide column, pH 7.4, eLogD
in vitro [5] = details: human
[6] = tested on: Leishmania infantum MHOM/MA(BE)/67/ITMAP263 intracellular amastigotes; assay: microbe, parasite or virus in culture; details: Macrophage, in Mus musculus; for IC50: read-out: L. Inf. pIC50, from L. infantum intracellular amastigote IC50 (converted); for pIC50: read-out: L. infantum MHOM/MA(BE)/67/ITMAP263 intracellular amastigotes IC50
[7] = tested on: Trypanosoma cruzi, Tulahuen CL2, beta-galactosidase strain; assay: microbe, parasite or virus in culture; details: MRC5, read-out: T. cruzi Tulahuen C4 (LacZ) IC50
[8] = tested on: Leishmania infantum MHOM/MA(BE)/67/ITMAP263 intracellular amastigotes; details: for pIC50: read-out: L. infantum MHOM/MA(BE)/67/ITMAP263 intracellular amastigotes IC50
[9] = tested on: L. donovani MHOM/ET/67/L82 intracellular amastigotes; details: read-out: L. donovani MHOM/ET/67/L82 intracellular amastigotes IC50
MRC-5SV2 cells = assay: Cytotoxicity assay on MRC-5SV2 cells (resazurin)

Structure (SMILES) | SI (vs PMM) [1] | pIC50 (in vitro [2]) | microsomal CLint at 0.5 μM (in vitro [3]) [µL/min/mg] | microsomal CLint at 0.5 μM (in vitro [4]) [µL/min/mg] | chromatographic logD (physchem) | CC50 at 3 days (in vitro [5]) [µM] | IC50 [6] [µM] | pIC50 [6] | pIC50 [7] | CC50 at 5 days (in vitro [2]) [µM] | pIC50 [8] | pIC50 [9] | pIC50 [1] | CC50 (MRC-5SV2 cells) [µM] | L. Inf. pIC50 [8]
CCN(Cc1ccccn1)S(=O)(=O)c1cc(OC)ccc1OC [DNDI0003366095] | 1 | < 4.19 | 118 | 2190 | 2.7 | > 64 | 43.7 | 4.36 | < 4.19 | – | – | – | – | – | –
Cc1cc(C)c(C#N)c(SCSc2nc(C)cc(C)c2C#N)n1 [DNDI0003297456] | 1 | < 4.19 | – | – | – | > 64 | > 64 | < 4.19 | < 4.19 | – | – | – | – | – | –
COc1ccc(OC)c(S(=O)(=O)N(CCO)Cc2ccccc2)c1 [DNDI0003366067] | 1 | < 4.19 | 161 | – | 2.9 | > 64 | 52.5 | 4.28 | 4.29 | – | – | – | – | – | –
COc1ccc(OC)c(S(=O)(=O)N(Cc2ccc(F)cc2)Cc2ccc(F)cc2)c1 [DNDI0003366069] | 119 | < 4.19 | – | – | – | > 64 | 0.537 | 6.27 | 5.20 | – | – | – | – | – | –
COc1ccc(Cl)cc1S(=O)(=O)NCCN(C)C [DNDI0003366089] | 1 | < 4.19 | 33 | – | 2.1 | > 64 | > 64 | < 4.19 | < 4.19 | – | – | – | – | – | –
CCN(Cc1ccccc1)S(=O)(=O)c1cc(F)ccc1F [DNDI0003364474] | 2 | < 4.19 | 205 | 705 | 4.2 | 45.2 | 33.9 | 4.47 | 4.52 | – | – | – | – | – | –
COCCN(Cc1ccccc1)S(=O)(=O)c1cc(OC)ccc1OC [DNDI0003365566] | 31 | < 4.19 | 253 | – | – | 39.4 | 2.09 | 5.68 | 4.48 | – | – | – | – | – | –
O=S(=O)(c1ccccc1OC(F)(F)F)N(Cc1ccccc1)Cc1ccccc1 [DNDI0003366074] | 30 | 4.49 | 93 | 689 | – | > 64 | 1.07 | 5.97 | 5.20 | – | – | – | – | – | –
CCC(Cc1ccccc1)S(=O)(=O)c1nc(C)cc(C)c1C#N (stereo not drawn) [DNDI0003297459] | 3 | < 4.19 | – | – | – | > 64 | 20.4 | 4.69 | 4.34 | – | – | – | – | – | –
CONS(=O)(=O)c1cc(Cl)ccc1OC [DNDI0003364475] | 1 | < 4.19 | – | – | – | > 64 | > 64 | < 4.19 | < 4.19 | – | – | – | – | – | –
CCN(Cc1ccc(F)cc1)S(=O)(=O)c1cc(Cl)ccc1OC [DNDI0003366065] | 3 | < 4.19 | 352 | – | 4.4 | 59.5 | 21.9 | 4.66 | 5.16 | – | – | – | – | – | –
COCCN(Cc1ccccc1)S(=O)(=O)c1ccc(NC(C)=O)cc1 [DNDI0003366100] | 1 | < 4.19 | 424 | 29 | 3.2 | > 64 | > 64 | < 4.19 | < 4.19 | – | – | – | – | – | –
CC(=O)Nc1ccc(S(=O)(=O)N(CCN(C)C)Cc2ccccc2)cc1 [DNDI0003366091] | 1 | < 4.19 | 95 | 42 | 3 | > 64 | > 64 | < 4.19 | < 4.19 | – | – | – | – | – | –
CC(=O)Nc1ccc(S(=O)(=O)NCc2ccccc2)cc1 [DNDI0003366092] | 1 | < 4.19 | – | – | – | > 64 | > 64 | < 4.19 | < 4.19 | – | – | – | – | – | –
CC/C(=C(\c1ccccc1)c1ccc(OCCN(C)C)cc1)c1ccccc1 [Tamoxifen, reference compound] | – | – | – | – | – | – | – | – | – | 5 to 10 | – | – | – | – | –
CCN(Cc1ccccc1)S(=O)(=O)c1cc(F)ccc1OC [DNDI0003366070] | 6 | < 4.19 | 383 | – | 3.9 | 49.6 | 11 | 4.96 | 4.55 | – | – | – | – | – | –
COCCN(C(C)=O)c1ccc(S(=O)(=O)N(CCOC)Cc2ccccc2)cc1 [DNDI0003366101] | 1 | < 4.19 | 73 | 227 | 3.1 | > 64 | > 64 | < 4.19 | < 4.19 | – | – | – | – | – | –
COc1ccc(OC)c(S(=O)(=O)N(Cc2ccccc2)C2CCNCC2)c1 [DNDI0003366094] | 2 | 4.34 | 100 | 23 | 3.1 | 42.2 | 27.5 | 4.56 | 4.54 | – | – | – | – | – | –
COc1ccc(Cl)cc1S(=O)(=O)N(CCN(C)C)Cc1ccccc1 [DNDI0003366090] | 7 | 4.34 | 1190 | 120 | 4 | 26.7 | 6.17 | 5.21 | 4.49 | – | – | – | – | – | –
CCCCC(=O)Nc1cccnc1S(=O)(=O)CCOc1ccccc1 [DNDI0003363560] | 1 | 4.49 | – | – | – | 29.7 | 32.4 | 4.49 | 4.83 | – | – | – | – | – | –
COc1ccc(Cl)cc1S(=O)(=O)N(Cc1ccccc1)Cc1ccccc1 [DNDI0003366072] | – | < 4.19 | 407 | 1350 | – | > 64 | 1.38 | 5.86 | 5.09 | – | – | – | – | – | –
CC1CCc2ccccc2N1CC(=O)N1CCCc2cc(S(=O)(=O)N(C)C)ccc21 (stereo not drawn) [Compound Z195652240] | – | – | – | – | – | – | – | – | – | – | < 4.49 | < 4.49 | < 4.49 | > 32 | –
COc1ccc(OC)c(S(=O)(=O)N(C)Cc2ccc(F)cc2)c1 [DNDI0003366066] | 5 | < 4.19 | 414 | – | – | > 64 | 11.7 | 4.93 | 4.57 | – | – | – | – | – | –
CCN(Cc1ccccc1)S(=O)(=O)c1ccccc1Br [DNDI0003365405] | 2 | < 4.19 | 88 | 235 | 4.2 | > 64 | 33.9 | 4.47 | 4.86 | – | – | – | – | – | –
CCc1c(C(=O)Nc2cc(S(=O)(=O)NC)ccc2C)[nH]c(C)c1C(C)=O [Compound Z792473370] | – | – | – | – | – | – | – | – | – | – | 4.67 | < 4.49 | < 4.49 | > 32 | 4.67
COc1ccc(F)cc1S(=O)(=O)N(Cc1ccccc1)Cc1ccccc1 [DNDI0003366071] | 47 | < 4.19 | 955 | – | – | > 64 | 1.38 | 5.86 | 5.17 | – | – | – | – | – | –
